Assay results as given in PubChem BioAssay AID1963981 (Molecular Pharmacology Branch, DTP, NCI, 2024).

Tested on: 354836-022-R-J1-PDC multicell spheroid viability
Test: Anticancer human tumor 354836-022-R-J1-PDC patient-derived head and neck squamous cell carcinoma cell line growth inhibition [PI3K]
Conditions: for viability, T/C: stronger effect = lower value; active means viability on the fitted dose curve at most 10% of control; inactive means the rest
Outline: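 Agents were dosed from a top concentration near clinical Cmax (otherwise 10 microM) in half-log decrements, alone or combined with PI3K inhibitors. The spheroids contain tumor cells plus endothelial (HUVEC) and MSC stroma; viability is measured.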

[1] = curve of first compound, second compound 0.00316 µM
[2] = curve of first compound, second compound 0.01 µM
[3] = curve of first compound, second compound 0.0316 µM
[4] = curve of first compound, second compound 0.1 µM
[5] = curve of first compound, second compound 0.316 µM
[6] = curve of first compound, second compound 1 µM
[7] = second compound 0.00316 µM, first compound 0.0316 µM
[8] = second compound 0.00316 µM, first compound 0.1 µM
[9] = second compound 0.01 µM, first compound 0.0316 µM
[10] = second compound 0.01 µM, first compound 0.1 µM
[11] = second compound 0.0316 µM, first compound 0.0316 µM
[12] = second compound 0.0316 µM, first compound 0.1 µM
[13] = second compound 0.1 µM, first compound 0.0316 µM
[14] = second compound 0.1 µM, first compound 0.1 µM
[15] = second compound 0.316 µM, first compound 0.0316 µM
[16] = second compound 0.316 µM, first compound 0.1 µM
[17] = second compound 1 µM, first compound 0.0316 µM
[18] = second compound 1 µM, first compound 0.1 µM
[19] = second compound 0.0316 µM, first compound 0.316 µM
[20] = second compound 0.0316 µM, first compound 1 µM
[21] = second compound 0.0316 µM, first compound 3.16 µM
[22] = second compound 0.0316 µM, first compound 10 µM
[23] = second compound 0.1 µM, first compound 0.316 µM
[24] = second compound 0.1 µM, first compound 1 µM
[25] = second compound 0.1 µM, first compound 3.16 µM
[26] = second compound 0.1 µM, first compound 10 µM
[27] = second compound 0.316 µM, first compound 0.316 µM
[28] = second compound 0.316 µM, first compound 1 µM
[29] = second compound 0.316 µM, first compound 3.16 µM
[30] = second compound 0.316 µM, first compound 10 µM
[31] = second compound 1 µM, first compound 0.316 µM
[32] = second compound 1 µM, first compound 1 µM
[33] = second compound 1 µM, first compound 3.16 µM
[34] = second compound 1 µM, first compound 10 µM
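Further: spheroids exposed to agents for seven days before the viability read.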

Cn1ncnc1[C@H]1c2n[nH]c(=O)c3cc(F)cc(c23)N[C@@H]1c1ccc(F)cc1 + CC(Nc1ccc2c(c1)OCCn1cc(N3C(=O)OCC3C(F)F)nc1-2)C(N)=O
inactive: viability, T/C (second compound 0.00316 µM, first compound 0.000316 µM) 87.4% | viability, T/C (second compound 0.00316 µM, first compound 0.001 µM) 97.1% | viability, T/C (second compound 0.00316 µM, first compound 0.00316 µM) 91.6% | viability, T/C (second compound 0.00316 µM, first compound 0.01 µM) 101% | viability, T/C [7] 120% | viability, T/C [8] 89.8% | viability, T/C (second compound 0.01 µM, first compound 0.000316 µM) 88.4% | viability, T/C (second compound 0.01 µM, first compound 0.001 µM) 83.4% | viability, T/C (second compound 0.01 µM, first compound 0.00316 µM) 105% | viability, T/C (second compound 0.01 µM, first compound 0.01 µM) 92.6% | viability, T/C [9] 88.3% | viability, T/C [10] 84.3% | viability, T/C (second compound 0.0316 µM, first compound 0.000316 µM) 83% | viability, T/C (second compound 0.0316 µM, first compound 0.001 µM) 89.8% | viability, T/C (second compound 0.0316 µM, first compound 0.00316 µM) 95% | viability, T/C (second compound 0.0316 µM, first compound 0.01 µM) 111% | viability, T/C [11] 101% | viability, T/C [12] 75.5% | viability, T/C (second compound 0.1 µM, first compound 0.000316 µM) 87% | viability, T/C (second compound 0.1 µM, first compound 0.001 µM) 104% | viability, T/C (second compound 0.1 µM, first compound 0.00316 µM) 89.9% | viability, T/C (second compound 0.1 µM, first compound 0.01 µM) 89.1% | viability, T/C [13] 97.8% | viability, T/C [14] 70.3% | viability, T/C (second compound 0.316 µM, first compound 0.000316 µM) 69.1% | viability, T/C (second compound 0.316 µM, first compound 0.001 µM) 81.8% | viability, T/C (second compound 0.316 µM, first compound 0.00316 µM) 74.7% | viability, T/C (second compound 0.316 µM, first compound 0.01 µM) 72.6% | viability, T/C [15] 78.8% | viability, T/C [16] 60.4% | viability, T/C (second compound 1 µM, first compound 0.000316 µM) 58% | viability, T/C (second compound 1 µM, first compound 0.001 µM) 63% | viability, T/C (second compound 1 µM, first compound 0.00316 µM) 61.8% | viability, T/C (second compound 1 µM, first compound 0.01 µM) 56.8% | viability, T/C [17] 71.9% | viability, T/C [18] 53.4%
> 0.1 µM: IC50 [1] | IC50 [2] | IC50 [3] | IC50 [4] | IC50 [5] | IC50 [6]

Cn1ncnc1[C@H]1c2n[nH]c(=O)c3cc(F)cc(c23)N[C@@H]1c1ccc(F)cc1
inactive: viability, T/C (compound 0.000316 µM) 101% [middle of 4 runs] | viability, T/C (compound 0.001 µM) 100% [middle of 4 runs] | viability, T/C (compound 0.00316 µM) 98.7% [middle of 4 runs] | viability, T/C (compound 0.01 µM) 92.5% [middle of 4 runs] | viability, T/C (compound 0.0316 µM) 96.4% [middle of 4 runs] | viability, T/C (compound 0.1 µM) 92.1% [middle of 4 runs]
> 0.1 µM: IC50 (curve of compound)

CNC(=O)c1ccc(N2C(=S)N(c3ccc(C#N)c(C(F)(F)F)c3)C(=O)C2(C)C)cc1F + CC(Nc1ccc2c(c1)OCCn1cc(N3C(=O)OCC3C(F)F)nc1-2)C(N)=O
inactive: viability, T/C [7] 92.3% | viability, T/C [8] 99% | viability, T/C (second compound 0.00316 µM, first compound 0.316 µM) 104% | viability, T/C (second compound 0.00316 µM, first compound 1 µM) 82.8% | viability, T/C (second compound 0.00316 µM, first compound 3.16 µM) 97.8% | viability, T/C (second compound 0.00316 µM, first compound 10 µM) 84.7% | viability, T/C [9] 120% | viability, T/C [10] 88% | viability, T/C (second compound 0.01 µM, first compound 0.316 µM) 94.3% | viability, T/C (second compound 0.01 µM, first compound 1 µM) 101% | viability, T/C (second compound 0.01 µM, first compound 3.16 µM) 93.5% | viability, T/C (second compound 0.01 µM, first compound 10 µM) 84.6% | viability, T/C [11] 92% | viability, T/C [12] 96.7% | viability, T/C [19] 83.1% | viability, T/C [20] 89.4% | viability, T/C [21] 87.9% | viability, T/C [22] 88.2% | viability, T/C [13] 90.8% | viability, T/C [14] 95.2% | viability, T/C [23] 94.2% | viability, T/C [24] 91% | viability, T/C [25] 88.7% | viability, T/C [26] 85.7% | viability, T/C [15] 62.9% | viability, T/C [16] 79.9% | viability, T/C [27] 74.1% | viability, T/C [28] 67.6% | viability, T/C [29] 77.6% | viability, T/C [30] 67.9% | viability, T/C [17] 63.5% | viability, T/C [18] 57.7% | viability, T/C [31] 64.3% | viability, T/C [32] 58.4% | viability, T/C [33] 54.3% | viability, T/C [34] 53.4%
> 10 µM: IC50 [1] | IC50 [2] | IC50 [3] | IC50 [4] | IC50 [5] | IC50 [6]

Cn1nccc1Nc1nccc(-c2ccn(C(CO)c3ccc(Cl)c(F)c3)c(=O)c2)n1 (stereo not drawn) + Cc1nc(NC(=O)N2CCCC2C(N)=O)sc1-c1ccnc(C(C)(C)C(F)(F)F)c1
> 10 µM: IC50 [3] | IC50 [4] | IC50 [5] | IC50 [6] | IC50 (curve of first compound, second compound 3.16 µM)
< 0.0316 µM: IC50 (curve of first compound, second compound 10 µM)
inactive: viability, T/C [11] 100% | viability, T/C [12] 91% | viability, T/C [19] 101% | viability, T/C [20] 92.5% | viability, T/C [21] 97.2% | viability, T/C [22] 95.1% | viability, T/C [13] 99.2% | viability, T/C [14] 92.5% | viability, T/C [23] 102% | viability, T/C [24] 88.7% | viability, T/C [25] 101% | viability, T/C [26] 91.3% | viability, T/C [15] 95% | viability, T/C [16] 91.3% | viability, T/C [27] 87.7% | viability, T/C [28] 89.3% | viability, T/C [29] 108% | viability, T/C [30] 101% | viability, T/C [17] 76.2% | viability, T/C [18] 89.7% | viability, T/C [31] 77.9% | viability, T/C [32] 79.1% | viability, T/C [33] 100% | viability, T/C [34] 90.3% | viability, T/C (second compound 3.16 µM, first compound 0.0316 µM) 58.4% | viability, T/C (second compound 3.16 µM, first compound 0.1 µM) 67.5% | viability, T/C (second compound 3.16 µM, first compound 0.316 µM) 61.9% | viability, T/C (second compound 3.16 µM, first compound 1 µM) 61.8% | viability, T/C (second compound 3.16 µM, first compound 3.16 µM) 72.4% | viability, T/C (second compound 3.16 µM, first compound 10 µM) 50.1% | viability, T/C (second compound 10 µM, first compound 0.0316 µM) 35.6% | viability, T/C (second compound 10 µM, first compound 0.1 µM) 41.5% | viability, T/C (second compound 10 µM, first compound 0.316 µM) 31.4% | viability, T/C (second compound 10 µM, first compound 1 µM) 33.7% | viability, T/C (second compound 10 µM, first compound 3.16 µM) 25.8% | viability, T/C (second compound 10 µM, first compound 10 µM) 14.7%
